Data on three compounds can be found in patent US20240391862A1, “(1,4,5-TRISUBSTITUTED-1H-PYRAZOL-3-YL)OXY-2-ALKOXY ALKYL ACIDS AND THEIR DERIVATIVES, THEIR SALTS AND THEIR USE AS HERBICIDAL AGENTS” (Bayer AKtiengesellschaft, priority 2021, published 2024).

One assay relates to VERPE. In words: Post-emergence herbicidal effect, greenhouse pot test. It counts as in vivo, Veronica persica. The settings on record: Veronica persica, 504 h, read-out: Post-emergence effect against VERPE in %. The gist of the method:
(§1)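 Sandy loam pots, greenhouse. One-leaf stage (2–3 wk after sowing) foliar spray; WP/EC in water + 0.5% additive, 600 l/ha; 20–320 g/ha. Visual score ~3 wk, 0–100% vs untreated.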

A further assay concerns ECHCG. Described as above. The assay is classed as in vivo, Echinochloa crus-galli. Conditions: Echinochloa crus-galli, 504 h, read-out: Post-emergence effect against ECHCG in %. The gist of the method:
as §1

The subject of a further assay is SETVI. The description is as above. It counts as in vivo, Setaria viridis. The settings on record: Setaria viridis, 504 h, 320 g/ha, read-out: Post-emergence effect against SETVI in %. The gist of the method: as §1
The test system of a further assay is TRZAS. Briefly: Post-emergence herbicidal effect and crop plant compatibility, greenhouse pot test. It counts as in vivo, Triticum aestivum. Conditions: 20 g/ha, one-leaf stage, rated visually after about 3 weeks vs untreated controls; for percent crop injury (phytotoxicity) to wheat, post-emergence at 20 g/ha: Triticum aestivum, 504 h, read-out: Post-emergence effect at 20 g/ha against TRZAS in %. The gist of the method: (§2)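 Visual % activity scored roughly 3 weeks post-spray against untreated plants, where 100% means death and 0% equals control. Plants were treated at the one-leaf stage, 2 to 3 weeks after sowing in sandy loam, at 20 to 320 g/ha.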

In a further assay the test system is VIOTR. Briefly: Post-emergence herbicidal effect, greenhouse pot test. It counts as in vivo, Viola tricolor. Conditions: Viola tricolor, 504 h, read-out: Post-emergence effect against VIOTR in %. The gist of the method: as §1
A further assay relates to AMARE. The description is as above. The assay is classed as in vivo, Amaranthus retroflexus. Conditions: Amaranthus retroflexus, 504 h, visual rating about 3 weeks after treatment, read-out: Post-emergence effect against AMARE. The gist of the method: as §1
The next assay concerns ZEAMX. In words: Post-emergence herbicidal effect and crop plant compatibility, greenhouse pot test. It counts as in vivo, Zea mays. The settings on record: one-leaf stage, rated visually after about 3 weeks vs untreated controls; for plant injury at 20 g/ha: read-out: Post-emergence effect at 20 g/ha against ZEAMX in %. The gist of the method: as §2
The subject of another assay is LOLRI. In words: Post-emergence herbicidal effect, greenhouse pot test. It counts as in vivo, Lolium rigidum. The settings on record: Lolium rigidum, 504 h, 320 g/ha, read-out: Post-emergence effect against LOLRI in %. The gist of the method: as §1
Another assay has as its system DIGSA. Described as above. Conditions: Digitaria sanguinalis, 504 h, 320 g/ha, visual rating about 3 weeks after treatment, read-out: Post-emergence effect against DIGSA. The assay is classed as in vivo, Digitaria sanguinalis. The gist of the method: as §1
For another assay, the system named is PHBPU. The description is as above. The assay is classed as in vivo, Ipomoea purpurea. Conditions: Ipomoea purpurea, 504 h, read-out: Post-emergence effect against PHBPU in %. The procedure, abridged:
as §1

In the next assay the test system is ALOMY. Described as above. The assay is classed as in vivo, Alopecurus myosuroides. The settings on record: Alopecurus myosuroides, 504 h, 320 g/ha, visual rating about 3 weeks after treatment, read-out: Post-emergence effect against ALOMY. The procedure, abridged:
as §1

A further assay concerns POLCO. Described as above. The assay is classed as in vivo, Fallopia convolvulus. The settings on record: for pest or weed control at 80 g/ha / pest or weed control at 320 g/ha: Fallopia convolvulus, 504 h, read-out: Post-emergence effect against POLCO in %. The gist of the method:
as §1

The next assay deals with ABUTH. The assay is described as above. It counts as in vivo, Abutilon theophrasti. Conditions: Abutilon theophrasti, 504 h, visual rating about 3 weeks after treatment, read-out: Post-emergence effect against ABUTH. The procedure, abridged:
as §1

A further assay deals with AVEFA. The assay is described as above. It counts as in vivo, Avena fatua. The settings on record: 320 g/ha, visual rating about 3 weeks after treatment; for pest or weed control at 320 g/ha: Avena fatua, 504 h, read-out: Post-emergence effect against AVEFA. The procedure, abridged:
as §1

The test system of another assay is KCHSC. Described as above. It counts as in vivo. The procedure, abridged:
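Visual rating of activity against untreated plants (100% = plants died, 0% = no effect), done about 3 weeks after treatment. Compounds applied at 20–320 g/ha as aqueous spray (600 l/ha, 0.5% additive) from WP or EC formulations onto one-leaf-stage plants grown in sandy loam under greenhouse conditions.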

SMILES strings stand for the structures.

Take `COC(=O)C(OC)Oc1nn(-c2ncccc2F)c(-c2ccc(F)nc2)c1Cl` (stereo not shown) [Example I-38]: in the assay on VERPE (20 g/ha), the pest or weed control at 20 g/ha is 80%. In addition, the pest or weed control at 80 g/ha in the assay on VERPE is 80%; with VIOTR it was 80%; in the assay with AMARE (80 g/ha), 90%; in the assay on PHBPU, 90%; in the assay with POLCO, 90%. Moreover, the pest or weed control at 320 g/ha with VERPE was determined as 100%; with ECHCG, 100%; in the assay on SETVI it was 90%; with VIOTR, 90%; in the assay on AMARE, 90%; in the assay with LOLRI, 100%. For the same compound, the pest or weed control at 320 g/ha with DIGSA is 90%; in the assay with PHBPU it was 90%; with ALOMY, 100%; with POLCO (320 g/ha), 90%; with ABUTH it was 80%; with AVEFA, 90%. Moreover, in the assay with TRZAS, the percent crop injury (phytotoxicity) to wheat, post-emergence at 20 g/ha was determined as 0%. For the same compound, in the assay with ZEAMX (Zea mays, 504 h, 20 g/ha), the plant injury at 20 g/ha was found to be 0%.
`CCOC(=O)C(OC)Oc1nn(-c2cnccn2)c(-c2ccc(F)nc2)c1Br` (stereo not shown) [Example I-47]: the pest or weed control at 80 g/ha in the assay on VERPE was found to be 80%; with ECHCG (80 g/ha), 90%; with VIOTR, 80%; with KCHSC (504 h, 80 g/ha, read-out: Post-emergence effect against KCHSC in %), 90%; in the assay on PHBPU it was 80%; in the assay on POLCO, 80%. For the same compound, the pest or weed control at 80 g/ha with ABUTH (80 g/ha) was 80%. The pest or weed control at 320 g/ha with VERPE amounted to 90%; in the assay on ECHCG it was 90%; in the assay with VIOTR, 90%; in the assay with AMARE, 80%; with KCHSC (504 h, 320 g/ha, read-out: Post-emergence effect against KCHSC in %), 90%; in the assay with LOLRI it was 90%. Moreover, the pest or weed control at 320 g/ha was determined as 80% in the assay with DIGSA; 90% in the assay on PHBPU; 80% with POLCO (320 g/ha); 90% in the assay on ABUTH; 80% in the assay with AVEFA. Moreover, the percent crop injury (phytotoxicity) to wheat, post-emergence at 20 g/ha with TRZAS was found to be 0%. Moreover, the plant injury at 20 g/ha with ZEAMX (Zea mays, 504 h, 20 g/ha) was found to be 0%. Besides, in the assay on ZEAMX (Zea mays, 504 h, 80 g/ha, read-out: Post-emergence effect at 80 g/ha against ZEAMX in %), the plant injury at 80 g/ha amounted to 0%.
Regarding `COC(Oc1nn(-c2ncccc2F)c(-c2ccc(F)nc2)c1C1CC1)C(=O)O` (stereo not shown) [Example I-89], the “Post-emergence effect at 20 g/ha against TRZAS in %” value in the assay on TRZAS is reported as 0%. In addition, in the assay on ZEAMX (20 g/ha), the “Post-emergence effect at 20 g/ha against ZEAMX in %” value is on record as 0%. The “Post-emergence effect at 80 g/ha against ZEAMX in %” value in the assay with ZEAMX (80 g/ha) was 0%. Besides, in the assay with KCHSC (320 g/ha), the “Post-emergence effect against KCHSC in %” value is recorded as 90%. In addition, the pest or weed control at 320 g/ha in the assay with LOLRI and in the assay with ALOMY was 90% in each case. Further, the “Post-emergence effect against POLCO in %” value with POLCO (320 g/ha) is on record as 90%. The “Post-emergence effect against AVEFA” value in the assay on AVEFA was 80%.
